# Test results taken from ChEMBL document CHEMBL3526130, “An evaluation of using rat-derived single-dose neuropharmacokinetic parameters to project accurately large animal unbound brain drug concentrations” (Drug Metab Dispos, 2012).
# Assays:
# [1] = AUC(0 to 4 hrs) in Beagle dog plasma at 1 mg/kg, sc by LC-MS/MS analysis; type: ADME, organism-based, Canis lupus familiaris; parameters: time < 4 hr, dose 1 mg/kg, route subcutaneous
# [2] = AUC(0 to 2 hrs) in cynomolgus monkey plasma at 1 mg/kg, sc by LC-MS/MS analysis; type: ADME, organism-based, Macaca fascicularis; parameters: time < 2 hr, dose 1 mg/kg, route subcutaneous
# [3] = AUC(0 to 2 hrs) in cynomolgus monkey cerebrospinal fluid at 1 mg/kg, sc by LC-MS/MS analysis; type: ADME, organism-based, Macaca fascicularis; parameters: time < 2 hr, dose 1 mg/kg, route subcutaneous
# [4] = AUC(0 to 2 hrs) in Sprague-Dawley rat plasma at 3.2 mg/kg, sc by LC-MS/MS analysis; type: ADME, organism-based; parameters: time < 2 hr, dose 3.2 mg/kg, route subcutaneous
# [5] = AUC(0 to infinity) in Sprague-Dawley rat plasma at 3.2 mg/kg, sc by LC-MS/MS analysis; type: ADME, organism-based; parameters: time infinity, dose 3.2 mg/kg, route subcutaneous
# [6] = AUC(0 to 2 hrs) in Sprague-Dawley rat cerebrospinal fluid at 3.2 mg/kg, sc by LC-MS/MS analysis; type: ADME, organism-based; parameters: time < 2 hr, dose 3.2 mg/kg, route subcutaneous
# [7] = Ratio of drug level in brain to plasma in Sprague-Dawley rat at 3.2 mg/kg, sc by LC-MS/MS analysis; type: ADME, organism-based; parameters: dose 3.2 mg/kg, route subcutaneous; conditions: read-out: BPR
# Nucleic Acid [8] = experiment: Ratio of drug level in cerebrospinal fluid to unbound plasma concentration in Sprague-Dawley rat at 3.2 mg/kg, sc by LC-MS/MS analysis; type: ADME, organism-based; parameters: dose 3.2 mg/kg, route subcutaneous; conditions: in vivo
# [9] = Ratio of unbound brain concentration to drug level in cerebrospinal fluid in Sprague-Dawley rat at 3.2 mg/kg, sc by LC-MS/MS analysis; type: ADME, organism-based; parameters: dose 3.2 mg/kg, route subcutaneous; conditions: in vivo
# [10] = Ratio of unbound drug level in brain to plasma in Sprague-Dawley rat at 3.2 mg/kg, sc by LC-MS/MS analysis; type: ADME, organism-based; parameters: dose 3.2 mg/kg, route subcutaneous
# [11] = Unbound fraction in Beagle dog plasma at 1 mg/kg, sc by LC-MS/MS analysis; type: ADME, organism-based, Canis lupus familiaris; parameters: dose 1 mg/kg, route subcutaneous
# [12] = Unbound fraction in Beagle dog brain at 1 mg/kg, sc by LC-MS/MS analysis; type: ADME, organism-based, Canis lupus familiaris; parameters: dose 1 mg/kg, route subcutaneous
# [13] = Unbound fraction in cynomolgus monkey plasma at 1 mg/kg, sc by LC-MS/MS analysis; type: ADME, organism-based, Macaca fascicularis; parameters: dose 1 mg/kg, route subcutaneous
# [14] = Unbound fraction in cynomolgus monkey brain at 1 mg/kg, sc by LC-MS/MS analysis; type: ADME, organism-based, Macaca fascicularis; parameters: dose 1 mg/kg, route subcutaneous
# [15] = AUC(0 to infinity) in Sprague-Dawley rat cerebrospinal fluid at 3.2 mg/kg, sc by LC-MS/MS analysis; type: ADME, organism-based; parameters: time infinity, dose 3.2 mg/kg, route subcutaneous
# [16] = AUC(0 to 2 hrs) in Sprague-Dawley rat brain at 3.2 mg/kg, sc by LC-MS/MS analysis; type: ADME, organism-based; parameters: time < 2 hr, dose 3.2 mg/kg, route subcutaneous
# [17] = AUC(0 to infinity) in Sprague-Dawley rat brain at 3.2 mg/kg, sc by LC-MS/MS analysis; type: ADME, organism-based; parameters: time infinity, dose 3.2 mg/kg, route subcutaneous
# [18] = Ratio of unbound brain concentration to drug level in cerebrospinal fluid in cynomolgus monkey at 1 mg/kg, sc by LC-MS/MS analysis; type: ADME, organism-based, Macaca fascicularis; parameters: dose 1 mg/kg, route subcutaneous; conditions: in vivo
# [19] = Ratio of unbound drug level in brain to plasma in Beagle dog at 1 mg/kg, sc by LC-MS/MS analysis; type: ADME, organism-based, Canis lupus familiaris; parameters: dose 1 mg/kg, route subcutaneous; conditions: brain and plasma
# [20] = Ratio of unbound drug level in brain to plasma in cynomolgus monkey at 1 mg/kg, sc by LC-MS/MS analysis; type: ADME, organism-based, Macaca fascicularis; parameters: dose 1 mg/kg, route subcutaneous; conditions: brain and plasma
# [21] = AUC(0 to 4 hrs) in Beagle dog brain at 1 mg/kg, sc by LC-MS/MS analysis; type: ADME, organism-based, Canis lupus familiaris; parameters: time < 4 hr, dose 1 mg/kg, route subcutaneous
# [22] = AUC(0 to 2 hrs) in cynomolgus monkey brain at 1 mg/kg, sc by LC-MS/MS analysis; type: ADME, organism-based, Macaca fascicularis; parameters: time < 2 hr, dose 1 mg/kg, route subcutaneous
# [23] = Ratio of drug level in brain to plasma in Beagle dog at 1 mg/kg, sc by LC-MS/MS analysis; type: ADME, organism-based, Canis lupus familiaris; parameters: dose 1 mg/kg, route subcutaneous; conditions: brain and plasma, read-out: BPR
# [24] = Ratio of drug level in brain to plasma in cynomolgus monkey at 1 mg/kg, sc by LC-MS/MS analysis; type: ADME, organism-based, Macaca fascicularis; parameters: dose 1 mg/kg, route subcutaneous; conditions: brain and plasma, read-out: BPR
# Nucleic Acid [25] = experiment: Ratio of drug level in cerebrospinal fluid to unbound plasma concentration in cynomolgus monkey at 1 mg/kg, sc by LC-MS/MS analysis; type: ADME, organism-based, Macaca fascicularis; parameters: dose 1 mg/kg, route subcutaneous; conditions: in vivo
smiles,measurement,setting,value
CNCc1cc(F)c(Cl)cc1Oc1cccc(OC)c1C,AUC(0-t) at 4 h,[1],134 ng·h/mL
same,AUC(0-t) at 2 h,[2],150 ng·h/mL
same,AUC(0-t) at 2 h,[3],2.18 ng·h/mL
same,AUC(0-t) at 2 h,[4],302 ng·h/mL
same,AUC(0-inf),[5],479 ng·h/mL
same,AUC(0-t) at 2 h,[6],6.42 ng·h/mL
same,Kp,[7],11.1
same,Ratio,Nucleic Acid [8],1.47
same,Ratio,[9],2.65
same,Kp uu,[10],3.9
same,fraction unbound,[11],0.0162
same,fraction unbound,[12],0.00443
same,fraction unbound,[13],0.0279
same,fraction unbound,[14],0.0038
same,AUC(0-inf),[15],8.12 ng·h/mL
same,AUC(0-t) at 2 h,[16],3360 ng·h/mL
same,AUC(0-inf),[17],5570 ng·h/mL
same,Ratio,[18],3.92
same,Kp uu,[19],4.61
same,Kp uu,[20],2.04
same,AUC(0-t) at 4 h,[21],2260 ng·h/mL
same,AUC(0-t) at 2 h,[22],2250 ng·h/mL
same,Kp,[23],16.9
same,Kp,[24],15
same,Ratio,Nucleic Acid [25],0.52
